Values joined by “and” are separate entries in the source; they are usually repeats but may differ in a detail not shown here. Equal entries are not always repeated. “Also recorded” adds a separate entry of the source.
Columns and labels:
Assay type in all cases: cell-based
GLUT1 [1] = molecular target: T1, GLUT1 (Homo sapiens, UniProt P11166); test: small molecule GLUT1 inhibition study of tracer uptake (flow cytometry)
T1 construct: Adult human RBCs exclusively express the glucose transporter 1 (GLUT1) encoded by the SLC2A1 gene; endogenous in cells; host or cells: human erythrocytes (RBCs) isolated from blood
T1 sequence (P11166 1-492): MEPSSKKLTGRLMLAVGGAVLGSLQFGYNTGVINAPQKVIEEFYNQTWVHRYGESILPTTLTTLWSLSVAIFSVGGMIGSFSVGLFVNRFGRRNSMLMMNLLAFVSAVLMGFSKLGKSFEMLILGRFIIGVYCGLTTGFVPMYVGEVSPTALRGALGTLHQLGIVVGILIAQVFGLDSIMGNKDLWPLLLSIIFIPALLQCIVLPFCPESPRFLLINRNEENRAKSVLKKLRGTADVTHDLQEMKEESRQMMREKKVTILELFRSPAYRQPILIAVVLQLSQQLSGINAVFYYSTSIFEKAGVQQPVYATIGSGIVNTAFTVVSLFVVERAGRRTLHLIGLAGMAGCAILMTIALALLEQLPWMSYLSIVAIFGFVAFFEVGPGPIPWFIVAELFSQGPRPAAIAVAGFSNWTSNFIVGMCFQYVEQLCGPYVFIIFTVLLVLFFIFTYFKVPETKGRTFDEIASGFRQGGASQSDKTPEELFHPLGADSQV
Experimental: To test the tracer specificity, a competition experiment was first performed on the flow cytometer under identical settings as were used in the membrane integrity experiments above. Aliquots of solutions of RBCs containing KCl solution and 20 μM of a given glucose tracer were incubated for 60 minutes at 37° C. shaker at 400 RPM containing a selected concentration of unlabeled D-glucose (i.e., 0.00, 0.01, 0.50, 1.00, 5.00, 25.00, 50.00 or 100.00 mM). After incubation, cells were washed one time in 125 KCl solution containing the selected concentration of D-glucose and promptly measured on the flow cytometer using the conditions described above. Next, GLUT1-specific transport was further tested by preparing washed RBC solutions as described above and then incubating the RBC solutions with one of the GLUT1 inhibitors on a 37° C. shaker at 400 RPM for one hour of incubation. […] Samples were then spun down, and supernatant was removed and fresh inhibitor/KCl solution was added and inverted. Glucose tracers were then added at working concentrations of 20 μM and incubated for 30 minutes on a 37° C. shaker at 400 RPM. After 30 minutes, cells were quickly spun down again using the protocol described in herein and supernatant was removed and replaced with fresh inhibitor/KCl solution before immediately being placed on the flow cytometer. […]

GLUT1 [2] = molecular target: T1, GLUT1; test: glucose competition study with unlabeled D-glucose (flow cytometry); details: 20 μM tracer; for mean intensity maintained, % of the mean intensity of the control sample: 100 mM unlabeled D-glucose (5000× tracer), 60 min, 37° C., human RBCs
Experimental: To test the tracer specificity, a competition experiment was first performed on the flow cytometer under identical settings as were used in the membrane integrity experiments above. Aliquots of solutions of RBCs containing KCl solution and 20 μM of a given glucose tracer were incubated for 60 minutes at 37° C. shaker at 400 RPM containing a selected concentration of unlabeled D-glucose (i.e., 0.00, 0.01, 0.50, 1.00, 5.00, 25.00, 50.00 or 100.00 mM). After incubation, cells were washed one time in 125 KCl solution containing the selected concentration of D-glucose and promptly measured on the flow cytometer using the conditions described above. Next, GLUT1-specific transport was further tested by preparing washed RBC solutions as described above and then incubating the RBC solutions with one of the GLUT1 inhibitors on a 37° C. shaker at 400 RPM for one hour of incubation. […] Samples were then spun down, and supernatant was removed and fresh inhibitor/KCl solution was added and inverted. Glucose tracers were then added at working concentrations of 20 μM and incubated for 30 minutes on a 37° C. shaker at 400 RPM. After 30 minutes, cells were quickly spun down again using the protocol described in herein and supernatant was removed and replaced with fresh inhibitor/KCl solution before immediately being placed on the flow cytometer. Each sample was run on the flow cytometer using identical settings described above.

human erythrocytes = test: single cell 2-NBDG uptake in anchored RBCs (microfluidic perfusion, confocal microscopy)
Experimental: Sample preparation. Human whole blood from an individual donor was drawn into sodium heparin (NaHep) and shipped cold. Samples were received directly from BioIVT LLC and placed into 4° C. refrigeration until prepared for experimentation. Samples removed from refrigeration for experimentation purposes were first inverted for three minutes and then 200 μL were drawn from the collection tubes and placed into a fresh 1.5 mL centrifuge tube containing 1 mL of 125 mM KCl solution. Samples were gently inverted 5-10× and then placed in a 4° C. centrifuge and spun using a modified RBC isolation protocol aimed at reducing clotting of whole blood and deformation of RBCs (Hanson et al., American Journal of Physiology Heart and Circulatory Physiology, 2008. 295(2): p. H786-H793). Centrifugation-based separation of RBCs was performed at 2000 RPM (490×g) for 5 minutes. After centrifugation, supernatant was removed along with buffy coat (white blood cells, etc.) using a pipette and a fresh 1 mL of KCl solution was then added. This process was repeated 3× to isolate RBCs and diminish intracellular glucose.
Samples were then vortexed gently and placed on a 37° C. shaker at 400 RPM for one hour for incubation. Due to the high expression of glycophorin A+B in erythrocytes, it was a simple membrane target for antibody anchoring of cells to the microfluidic imaging surface using the biotin binding Neutravidin™ system.
Microfluidic Perfusion. An ONIX microfluidic perfusion system from CellAsic (Millipore Sigma) was used for flow-based experiments. The system comprises a perfusion pump system, which connects to a PC for multidimensional control of flow rates (converted from applied kPa, i.e., 27.6 kPA=20 μL/hr) and duration. The plates used for experiments herein are model Y04C. This plate system has a #1.5 glass bottom for imaging and contains four separate channels which have an observation region where fluid switching can occur homogenously. Plates were removed from vacuum packaging the day of experimentation and storage PBS was removed using a vacuum system. Each well was then filled with 400 μL of KCl solution and placed on the perfusion system. KCl solution was flowed through each channel and well (except for the waste well #7) at 20 μL/hr for 20 minutes to flush out any storage PBS. Next, one of the wells (#1 for each channel) was filled with 100 μL 0.1 mg/mL Pierce™ biotinylated-bovine serum albumin (B-BSA, Cat #29130, Thermo Scientific) in 125 mM KCl solution and this was then flowed through for 15 minutes total, then allowed to incubate for 15 minutes at room temperature. After the B-BSA was deposited on the glass surface of the channels, a 0.1 mg/mL solution of Neutravidin (Cat #31000, Thermo Scientific) in KCl solution was flowed for 15 minutes at room temperature to build a surface anchoring system for red blood cells.
For uptake measurements, cells incubated with biotinylated-α-glycophorin A+B antibodies were diluted 1:1 in KCl solution within well #8 and perfused using 20 μL/hr in combination with well #5 containing KCl solution only at 20 μL/hr for 10 seconds. Flowed cells were then allowed to incubate with the cell anchoring system described above for three minutes. […] Immediately after this time point, well #2 was stopped, and KCl solution only from well #5 was perfused at 20 μL/hr to wash away tracer (“washout”).
For uptake measurements, the 488 nm laser was configured for excitation to a power level of 0.07% of total laser voltage (i.e., 3.5 μW before the objective) with a pixel dwell time of 0.24 μs. For detection, the detector bandwidth was set to admit wavelengths 520 nm to 560 nm with a master gain of 500 V and digital gain set to 1×. The field of view was 1944 pixels×1944 pixels (or 192.8 μm×192.8 μm) which led to a total frame time of 989.11 ms for a single acquisition. With these settings and using the 40× magnification, the pixel size was ˜0.1 μm×˜0.1 μm.

[3] = 5 mM 2-NBDG, all cells, height corrected, FIG. 16B
[4] = normalized to the all donor mean, N=45, FIG. 18

Row | Compound | inhibition of tracer uptake by GLUT1 inhibitors, compared with other tracers (GLUT1 [1]; Phloretin, Cytochalasin B, WZB117, STF-31, BAY-876, 20 μM tracer, FIG. 1B) | specificity for the GLUT1 transporter (GLUT1 [1]; human RBCs, inhibitor panel and glucose competition experiments) | competition with unlabeled D-glucose among three tracers (GLUT1 [2]; 0.00-100.00 mM D-glucose, FIG. 9C) | mean intensity maintained, % of the mean intensity of the control sample (GLUT1 [2]) | time to saturation point of intracellular 2-NBDG intensity (human erythrocytes; 5 mM 2-NBDG, 20 μL/hr, FIG. 11B) | mean intracellular glucose fraction, typical patient with higher fraction (human erythrocytes; 5 mM 2-NBDG, 1802 cells, cell heights ≥2.1 μm, mean±1 SD, FIG. 14B) | mean intracellular glucose fraction, typical patient with lower fraction (human erythrocytes; 5 mM 2-NBDG, 2343 cells, cell heights ≥2.1 μm, mean±1 SD, FIG. 14A) | mean intracellular percentage for this patient blood sample (human erythrocytes; 5 mM 2-NBDG, FIG. 11C) | intracellular glucose percentage, Black patients (human erythrocytes; 5 mM 2-NBDG, FIG. 16A, n=20, mean±1 SD) | intracellular glucose percentage, Caucasian/Hispanic patients (human erythrocytes; 5 mM 2-NBDG, FIG. 16A, n=25, mean±1 SD) | mean (+/−SD) uptake normalized to overall mean, Black ancestry (human erythrocytes; 5 mM 2-NBDG, FIG. 17) | mean (+/−SD) uptake normalized to overall mean, White ancestry (human erythrocytes; 5 mM 2-NBDG, FIG. 17) | corrected intracellular glucose percentage (HCIG), Black patients (human erythrocytes; [3]) | corrected intracellular glucose percentage (HCIG), Caucasian/Hispanic patients (human erythrocytes; [3]) | stability of saturating intracellular level (plateau) (human erythrocytes; extended duration measurements, FIGS. 13A-13B) | mean normalized intracellular glucose, Black sub-group (human erythrocytes; [4]) | mean normalized intracellular glucose, Hispanic/Caucasian sub-group (human erythrocytes; [4])
1 | O=C[C@H](Nc1ccc([N+](=O)[O-])c2nonc12)[C@@H](O)[C@H](O)[C@H](O)CO [2-NBDG, 2-deoxy-2-[(7-nitro-2,1,3-benzoxadiazol-4-yl)amino]-D-glucose] | most inhibition; also recorded: consistently the most inhibited | highest specificity; also recorded: GLUT1 specific | highest competition | 1.4% | within several seconds | 6.7% and 6.7%±2.3% | 4.6% and 4.6%±1.6% | 4.9% | 0.057±0.018 | 0.044±0.018 | 118%+/−39% | 86%+/−36% | 0.060±0.020 | 0.044±0.018 | stable for several hours | 1.18 | 0.86
2 | 6-deoxy-2-[(7-nitro-2,1,3-benzoxadiazol-4-yl)amino]-D-glucose [6-NBDG] | – | – | – | 13.8% | – | – | – | – | – | – | – | – | – | – | – | – | –
3 | D-Glucose-Silicon rhodamine [D-glucose-SIR] | – | – | – | 41.9% | – | – | – | – | – | – | – | – | – | – | – | – | –
